This is an account of results in US6884882B1, “2′-deoxyuridine derivatives and hydrogels formed therewith” (Postech Foundation, priority 2004, dated 2005).

Molecules are shown by their SMILES. Entries after “also recorded” stand apart in the source; their conditions may differ.

What all share (assay type): physicochemical
The nature of series [1]: Observation of inner structures of gels by Scanning Electron Microscopy (SEM). The note with it: for gel structure in SEM image: gel prepared by the method of Example 2, lyophilized, platinum coated. How it is done:
The aggregation mode of the gel formed with the 2′-deoxyurindine derivative was observed by Scanning Electron Microscopy (SEM). Gels were prepared using the 2′-deoxyuridine derivatives prepared in 1-4), 1-7), 1-9) and 1-10) by the method of Example 2. Each of the gels was heated to obtain a sol, and a small amount of the sol was converted to a gel cake, which was lyophilized under a vacuum at the liquid nitrogen temperature to remove the solvent, coated with platinum, and examined by SEM.

Series [2] in a line: Gelation test (stable-to-inversion-of-the-container method) in water. To be noted: for State: 2 wt % in water, dissolved by sonication and heating, cooled at room temperature for 20 minutes, vessel inverted; for Minimum gel concentration: minimum concentration at which a gel was formed in water; for gelation ability: in water, judged from Table 1. How it is done:
In order to determine the extent of gelation of the 2′-deoxyuridine derivative of the present invention, the “stable-to-inversion-of-the-container” method was performed (see F. M. Menger and K. L Caran., J. Am. Chem. Soc., 122, 11679, 2000).
Each of 2′-deoxyuridine derivatives prepared in Example 1 was mixed with water in an amount corresponding to a concentration of 2 wt %, completely dissolved by sonication and heating, and then cooled at room temperature for 20 minutes to induce the formation of a gel. Then, the vessel containing the gel was inverted to see whether or not the content poured out.
Further, the minimum concentration at which a gel was formed (hereinafter, minimum gel concentration) was measured for each of the 2′-deoxyuridine derivatives.

Series [3] is described as follows: Analysis of thermal stability of hydrogel by differential scanning calorimetry. The note with it: DSC, 30 to 220° C., FIG. 3. How it is done: In order to examine the thermal stability of the 2′-deoxyuridine derivative of the present invention, 1 to 4 mg of the derivative prepared in 1-9) was shaped in the form of a pellet, and differential scanning calorimetry was performed therewith at a temperature ranging from 30 to 220° C.

Consider `O=c1[nH]c(=O)n([C@H]2C[C@H](O)[C@@H](CO)O2)cc1-c1cn(Cc2ccccc2)nn1` [1-4), 2′-deoxy-5-[1-(phenylmethyl)-1H-1,2,3-triazol-4-yl]-uridine], for which the “gel structure in SEM image” value in series [1] was “lamellar structure”. In addition, in series [2], the State entry is “White opaque gel” and the Minimum gel concentration is reported as 0.3 wt %.
Regarding `Cc1ccccc1Cn1cc(-c2cn([C@H]3C[C@H](O)[C@@H](CO)O3)c(=O)[nH]c2=O)nn1` [1-5), 2′-deoxy-5-[1-((o-methylphenyl)methyl)-1H-1,2,3-triazol-4-yl]-uridine], in series [2], the State entry is reported as “Unstable white opaque gel” and the Minimum gel concentration is 3 wt %.
In the case of `Cc1cccc(Cn2cc(-c3cn([C@H]4C[C@H](O)[C@@H](CO)O4)c(=O)[nH]c3=O)nn2)c1` [1-6), 2′-deoxy-5-[1-((m-methylphenyl)methyl)-1H-1,2,3-triazol-4-yl]-uridine], in series [2], the State result is “Unstable white opaque gel” and the Minimum gel concentration was found to be 1 wt %.
Consider `Cc1ccc(Cn2cc(-c3cn([C@H]4C[C@H](O)[C@@H](CO)O4)c(=O)[nH]c3=O)nn2)cc1` [1-7), 2′-deoxy-5-[1-((p-methylphenyl)methyl)-1H-1,2,3-triazol-4-yl]-uridine], for which the “gel structure in SEM image” value in series [1] is recorded as “lamellar structure”. In series [2], the State entry is recorded as “White opaque gel”, the gelation ability entry was “good gelation ability” and the Minimum gel concentration was found to be 0.6 wt %.
On to `CCc1ccccc1Cn1cc(-c2cn([C@H]3C[C@H](O)[C@@H](CO)O3)c(=O)[nH]c2=O)nn1` [1-8), 2′-deoxy-5-[1-((o-ethylphenyl)methyl)-1H-1,2,3-triazol-4-yl]-uridine], for which, in series [2], the State result was “Unstable white opaque gel” and the Minimum gel concentration is 2 wt %.
Take `CCc1ccc(Cn2cc(-c3cn([C@H]4C[C@H](O)[C@@H](CO)O4)c(=O)[nH]c3=O)nn2)cc1` [1-9), 2′-deoxy-5-[1-((p-ethylphenyl)methyl)-1H-1,2,3-triazol-4-yl]-uridine]: the “gel structure in SEM image on lowering the concentration” value in series [1] (concentration lowered from 2 to 0.25 wt %, FIG. 2) was “looser fiber structure having a larger void volume”. For the same compound, the “gel structure in SEM image” value in series [1] is “fiber structure”. In series [3], the “melting point peak of the gel phase” value is 201 °C and the “melting point peak of the solid phase” value was 200 °C. Further, in series [2], the State entry is “White opaque gel”, the gelation ability result is listed as “good gelation ability; also recorded: best gelation ability” and the Minimum gel concentration is recorded as 0.2 wt %.
For the compound `CCCCc1ccc(Cn2cc(-c3cn([C@H]4C[C@H](O)[C@@H](CO)O4)c(=O)[nH]c3=O)nn2)cc1` [1-10), 2′-deoxy-5-[1-((p-butylphenyl)methyl)-1H-1,2,3-triazol-4-yl]-uridine], the “gel structure in SEM image” value in series [1] was “lamellar structure”. In series [2], the State result was “White opaque gel”, the gelation ability result is reported as “good gelation ability” and the Minimum gel concentration is 0.8 wt %.
